Experiments:
[1] = molecular target: GTPase KRas (Homo sapiens) (UniProt P01116); test: Stabilization of N-terminal His10-tagged wild-type recombinant human KRAS (1 to 169 residues) expressed in Escherichia coli assessed as change in melting temperature at 100 uM with heating from 25 to 85 degreeC by thermal shift assay
[2] = system: Hepatocyte growth factor receptor (Homo sapiens), P08581 [M1250T]; test: Inhibition of MET M1250T mutant (unknown origin) assessed as residual activity at 1000 nM by KINOMEscan analysis relative to control
[3] = molecular target: Protein-tyrosine kinase 2-beta (Homo sapiens) (UniProt Q14289); test: Inhibition of PYK2 (unknown origin) assessed as residual activity at 1000 nM by KINOMEscan analysis relative to control
[4] = molecular target: MAP kinase-interacting serine/threonine-protein kinase 2 (Homo sapiens) (UniProt Q9HBH9); test: Inhibition of MKNK2 (unknown origin) assessed as residual activity at 1000 nM by KINOMEscan analysis relative to control
[5] = molecular target: Dual specificity protein kinase CLK1 (Homo sapiens) (UniProt P49759); test: Inhibition of CLK1 (unknown origin) assessed as residual activity at 1000 nM by KINOMEscan analysis relative to control
[6] = molecular target: Ephrin type-A receptor 2 (Homo sapiens) (UniProt P29317); test: Inhibition of EPHA2 (unknown origin) assessed as residual activity at 1000 nM by KINOMEscan analysis relative to control
[7] = molecular target: T1, Serine/threonine-protein kinase ICK (Homo sapiens) (UniProt Q9UPZ9); test: Inhibition of ICK (unknown origin) assessed as residual activity at 1000 nM by KINOMEscan analysis relative to control
T1 sequence (whole entry): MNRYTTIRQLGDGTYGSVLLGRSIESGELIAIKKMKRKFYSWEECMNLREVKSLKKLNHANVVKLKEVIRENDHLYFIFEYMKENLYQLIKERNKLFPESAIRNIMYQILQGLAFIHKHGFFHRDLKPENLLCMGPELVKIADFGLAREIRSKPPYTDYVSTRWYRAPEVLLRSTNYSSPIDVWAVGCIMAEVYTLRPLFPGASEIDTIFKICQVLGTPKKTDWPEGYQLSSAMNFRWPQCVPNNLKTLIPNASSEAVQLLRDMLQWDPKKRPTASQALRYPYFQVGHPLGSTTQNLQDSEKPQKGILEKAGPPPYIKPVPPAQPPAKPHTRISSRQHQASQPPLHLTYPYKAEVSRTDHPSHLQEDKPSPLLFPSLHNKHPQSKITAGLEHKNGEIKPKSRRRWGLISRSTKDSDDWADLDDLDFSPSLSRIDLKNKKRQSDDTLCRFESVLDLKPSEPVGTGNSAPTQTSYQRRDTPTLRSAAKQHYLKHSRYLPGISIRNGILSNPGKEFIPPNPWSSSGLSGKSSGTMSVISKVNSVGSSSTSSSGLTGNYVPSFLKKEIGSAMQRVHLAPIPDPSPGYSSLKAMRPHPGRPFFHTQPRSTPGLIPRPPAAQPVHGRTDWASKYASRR

[8] = molecular target: Dual specificity mitogen-activated protein kinase kinase 2 (Homo sapiens) (UniProt P36507); test: Inhibition of MEK2 (unknown origin) assessed as residual activity at 1000 nM by KINOMEscan analysis relative to control
[9] = molecular target: T2, Serine/threonine-protein kinase Nek9 (Homo sapiens) (UniProt Q8TD19); test: Inhibition of NEK9 (unknown origin) assessed as residual activity at 1000 nM by KINOMEscan analysis relative to control
T2 sequence (whole entry): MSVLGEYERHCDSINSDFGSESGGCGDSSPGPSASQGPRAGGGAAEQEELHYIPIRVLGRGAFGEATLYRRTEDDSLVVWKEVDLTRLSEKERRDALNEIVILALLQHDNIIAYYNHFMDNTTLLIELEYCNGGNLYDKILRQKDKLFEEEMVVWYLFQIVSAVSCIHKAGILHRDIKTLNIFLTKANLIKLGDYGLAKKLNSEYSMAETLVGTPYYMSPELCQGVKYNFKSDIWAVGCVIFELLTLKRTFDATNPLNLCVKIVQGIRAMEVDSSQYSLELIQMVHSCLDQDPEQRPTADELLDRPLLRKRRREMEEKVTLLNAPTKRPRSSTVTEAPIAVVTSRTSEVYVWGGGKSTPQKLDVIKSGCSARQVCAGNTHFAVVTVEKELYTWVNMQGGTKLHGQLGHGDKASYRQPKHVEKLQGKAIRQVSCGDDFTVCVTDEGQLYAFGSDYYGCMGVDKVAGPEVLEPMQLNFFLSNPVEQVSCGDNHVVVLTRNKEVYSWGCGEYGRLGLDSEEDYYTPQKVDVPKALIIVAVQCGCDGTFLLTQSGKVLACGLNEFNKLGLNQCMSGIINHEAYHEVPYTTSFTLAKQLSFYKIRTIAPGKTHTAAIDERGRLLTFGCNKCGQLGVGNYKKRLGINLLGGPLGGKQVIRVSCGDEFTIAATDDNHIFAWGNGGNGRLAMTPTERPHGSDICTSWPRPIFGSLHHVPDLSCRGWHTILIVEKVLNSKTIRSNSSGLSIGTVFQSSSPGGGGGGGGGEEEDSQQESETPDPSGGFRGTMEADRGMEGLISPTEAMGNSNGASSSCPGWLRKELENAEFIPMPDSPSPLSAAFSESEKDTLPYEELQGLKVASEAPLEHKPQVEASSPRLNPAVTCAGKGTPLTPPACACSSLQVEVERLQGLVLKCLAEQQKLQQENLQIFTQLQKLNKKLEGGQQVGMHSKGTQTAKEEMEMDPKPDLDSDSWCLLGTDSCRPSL

[10] = molecular target: T3, Phosphatidylinositol 5-phosphate 4-kinase type-2 beta (Homo sapiens) (UniProt P78356); test: Inhibition of PIP5K2B (unknown origin) assessed as residual activity at 1000 nM by KINOMEscan analysis relative to control
T3 sequence (whole entry): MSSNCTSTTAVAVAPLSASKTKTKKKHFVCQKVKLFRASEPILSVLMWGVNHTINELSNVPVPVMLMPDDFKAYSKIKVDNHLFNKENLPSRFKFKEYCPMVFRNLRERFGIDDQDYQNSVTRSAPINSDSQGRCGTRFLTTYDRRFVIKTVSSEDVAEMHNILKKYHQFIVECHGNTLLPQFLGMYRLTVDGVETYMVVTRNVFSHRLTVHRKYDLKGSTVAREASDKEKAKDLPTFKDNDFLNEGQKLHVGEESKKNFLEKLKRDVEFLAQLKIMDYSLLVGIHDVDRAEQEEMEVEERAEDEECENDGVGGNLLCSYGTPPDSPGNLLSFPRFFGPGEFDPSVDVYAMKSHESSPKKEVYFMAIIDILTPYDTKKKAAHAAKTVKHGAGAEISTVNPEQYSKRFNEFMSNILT

Structure (SMILES) | ΔTm [1] | Activity [2] | Activity [3] | Activity [4] | Activity [5] | Activity [6] | Activity [7] | Activity [8] | Activity [9] | Activity [10]
CNCc1ccccc1-c1csc([C@@H](C)Nc2nc(C)nc3cc(OC)c(OC)cc23)c1 [BAY-293] | 0.23 °C | – | – | – | – | – | – | – | – | –
COc1cc2nc(C)nc(N[C@H](C)c3cccc(-c4cn[nH]c4)c3)c2cc1OC | – | 100% | 38% | 89% | 70% | 45% | 78% | 63% | 97% | 89%
COc1cc2ncnc(N[C@H](C)c3cccc4ccccc34)c2cc1OC | -1.1 °C | 98% | 100% | 100% | 100% | 94% | 94% | 91% | 100% | 100%

Reference: ChEMBL document CHEMBL5678818, “Discovery of potent SOS1 inhibitors that block RAS activation via disruption of the RAS-SOS1 interaction” (Proc Natl Acad Sci U S A, 2019)
